Test results taken from US11192867B2, “Microbiocidal oxadiazole derivatives” (SYNGENTA PARTICIPATIONS AG, priority 2016, dated 2021).

Assays:
Phakopsora pachyrhizi = assay: Fungicidal activity against Phakopsora pachyrhizi / soybean / leaf disc preventative (Asian soybean rust); type: in vivo; details: foliar, 200 ppm in the applied formulation, soybean leaf disks, vs untreated control, read-out: disease control
How it was run: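 Preventative test: compound sprayed onto soybean leaf discs one day before spore inoculation of the lower leaf face. Incubation at 20 °C and 75% rh, first 24-36 h in darkness, then a 12 h light cycle. Disease control versus untreated discs read 12-14 days after application.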

[1] = tested on: Glomerella lagenarium (Colletotrichum lagenarium); assay: Fungicidal activity against Glomerella lagenarium (Colletotrichum lagenarium) liquid culture / cucumber / preventative (anthracnose); type: cell-based; details: Colletotrichum orbiculare, 72 h; 20 ppm in the applied formulation; liquid culture (PDB), growth inhibition measured photometrically 3 to 4 days after application; vs untreated control; read-out: disease control
How it was run: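 Spore-based broth assay: conidia mixed into PDB meet compound from a DMSO solution in 96-well format, incubate at 24° C., then inhibition of growth is determined by photometry 3–4 days later relative to the untreated check.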

[2] = tested on: Puccinia recondita f. sp. Tritici; assay: Fungicidal activity against Puccinia recondita f. sp. Tritici / wheat / leaf disc curative (brown rust); type: in vivo; details: foliar, 24 h, 200 ppm in the applied formulation, wheat leaf segments cv. Kanzler, applied 1 day after inoculation, vs untreated control, read-out: disease control
Description: Leaf disks or leaf segments of various plant species are cut from plants grown in a greenhouse. The cut leaf disks or segments are placed in multiwell plates (24-well format) onto water agar. The leaf disks are sprayed with a test solution before (preventative) or after (curative) inoculation. Compounds to be tested are prepared as DMSO solutions (max. 10 mg/ml) which are diluted to the appropriate concentration with 0.025% Tween20 just before spraying. The inoculated leaf disks or segments are incubated under defined conditions (temperature, relative humidity, light, etc.) according to the respective test system. A single evaluation of disease level is carried out 3 to 14 days after inoculation, depending on the pathosystem. Percent disease control relative to the untreated check leaf disks or segments is then calculated.
Wheat leaf segments cv. Kanzler are placed on agar in multiwell plates (24-well format). The leaf segments are then inoculated with a spore suspension of the fungus. Plates were stored in darkness at 19° C. and 75% relative humidity. The formulated test compound diluted in water was applied 1 day after inoculation. The leaf segments were incubated at 19° C. and 75% relative humidity under a light regime of 12 hours light/12 hours darkness in a climate cabinet and the activity of a compound was assessed as percent disease control compared to untreated when an appropriate level of disease damage appears in untreated check leaf segments (6 to 8 days after application).
The following compounds at 200 ppm in the applied formulation give at least 80% disease control in this test when compared to untreated control leaf disks under the same conditions, which show extensive disease development.

[3] = tested on: Puccinia recondita f. sp. Tritici; assay: Fungicidal activity against Puccinia recondita f. sp. Tritici / wheat / leaf disc preventative (brown rust); type: in vivo; details: foliar, 200 ppm in the applied formulation, wheat leaf segments cv. Kanzler, inoculated 1 day after application, vs untreated control, read-out: disease control
How it was run: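 Compound, diluted from DMSO solution into aqueous 0.025% Tween20, is sprayed at 200 ppm onto cut wheat segments (cv. Kanzler) placed on water agar. One day on, segments receive a fungal spore suspension and are incubated at 19° C., 75% rh, 12 h photoperiod, with % control vs untreated scored at 7–9 days.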

CC(CNC(=O)c1ccc(-c2noc(C(F)(F)F)n2)cc1)=NOCC1CC1 [Compound 1.145, N-[2-(cyclopropyl-methoxyimino)propyl]-4-[5-(trifluoromethyl)-1,2,4-oxadiazol-3-yl]benzamide]
≥ 80%: pest or weed control at 200 ppm (Phakopsora pachyrhizi) | inhibition of growth at 20 ppm [1] | pest or weed control at 200 ppm [2] | pest or weed control at 200 ppm [3]

O=C(NCC=NOC/C=C\Cl)c1ccc(-c2noc(C(F)(F)F)n2)cc1 [Compound 1.81, N-[2-[(Z)-3-chloroallyloxy]iminoethyl]-4-[5-(trifluoromethyl)-1,2,4-oxadiazol-3-yl]benzamide]
≥ 80%: pest or weed control at 200 ppm (Phakopsora pachyrhizi) | inhibition of growth at 20 ppm [1] | pest or weed control at 200 ppm [2] | pest or weed control at 200 ppm [3]

CON=C(C)CNC(=O)c1ccc(-c2noc(C(F)(F)F)n2)cc1 [Compound 1.133, N-(2-methoxyimino-propyl)-4-[5-(trifluoromethyl)-1,2,4-oxadiazol-3-yl]benzamide]
≥ 80%: pest or weed control at 200 ppm (Phakopsora pachyrhizi) | inhibition of growth at 20 ppm [1] | pest or weed control at 200 ppm [2] | pest or weed control at 200 ppm [3]

CO/N=C/CNC(=O)c1ccc(-c2noc(C(F)(F)F)n2)cc1F [Compound 1.4, 2-fluoro-N-[(2E)-2-methoxyimino-ethyl]-4-[5-(trifluoromethyl)-1,2,4-oxadiazol-3-yl]benzamide]
≥ 80%: pest or weed control at 200 ppm (Phakopsora pachyrhizi) | inhibition of growth at 20 ppm [1] | pest or weed control at 200 ppm [2] | pest or weed control at 200 ppm [3]

C=CCON=C(C)CNC(=O)c1ccc(-c2noc(C(F)(F)F)n2)cc1 [Compound 1.135, N-(2-allyloxyimino-propyl)-4-[5-(trifluoromethyl)-1,2,4-oxadiazol-3-yl]benzamide]
≥ 80%: pest or weed control at 200 ppm (Phakopsora pachyrhizi) | inhibition of growth at 20 ppm [1] | pest or weed control at 200 ppm [2] | pest or weed control at 200 ppm [3]

NCCON=CCNC(=O)c1ccc(-c2noc(C(F)(F)F)n2)cc1 [Compound 1.66, N-[2-(2-aminoethoxy-imino)ethyl]-4-[5-(trifluoromethyl)-1,2,4-oxadiazol-3-yl]benzamide]
≥ 80%: pest or weed control at 200 ppm (Phakopsora pachyrhizi) | inhibition of growth at 20 ppm [1] | pest or weed control at 200 ppm [2] | pest or weed control at 200 ppm [3]

CC(C)ON=CCNC(=O)c1ccc(-c2noc(C(F)(F)F)n2)cc1 [Compound 1.94, N-(2-isopropoxyimino-ethyl)-4-[5-(trifluoromethyl)-1,2,4-oxadiazol-3-yl]benzamide]
≥ 80%: pest or weed control at 200 ppm (Phakopsora pachyrhizi) | inhibition of growth at 20 ppm [1] | pest or weed control at 200 ppm [2] | pest or weed control at 200 ppm [3]

O=C(NCC=NOC1COC1)c1ccc(-c2noc(C(F)(F)F)n2)cc1 [Compound 1.102, N-[2-(oxetan-3-yloxyimino)ethyl]-4-[5-(trifluoromethyl)-1,2,4-oxadiazol-3-yl]benzamide]
≥ 80%: pest or weed control at 200 ppm (Phakopsora pachyrhizi) | inhibition of growth at 20 ppm [1] | pest or weed control at 200 ppm [2] | pest or weed control at 200 ppm [3]

CC(ON=CCNC(=O)c1ccc(-c2noc(C(F)(F)F)n2)cc1)C(=O)O (stereo not shown) [Compound 1.82, 2-[2-[[4-[5-(trifluoromethyl)-1,2,4-oxadiazol-3-yl]benzoyl]amino]ethylideneamino] oxypropanoic acid]
≥ 80%: pest or weed control at 200 ppm (Phakopsora pachyrhizi) | inhibition of growth at 20 ppm [1] | pest or weed control at 200 ppm [2] | pest or weed control at 200 ppm [3]

CC(CNC(=O)c1ccc(-c2noc(C(F)(F)F)n2)cc1)=NOCCN [Compound 1.110, N-[2-(2-aminoethoxy-imino)propyl]-4-[5-(trifluoromethyl)-1,2,4-oxadiazol-3-yl]benzamide]
≥ 80%: pest or weed control at 200 ppm (Phakopsora pachyrhizi) | inhibition of growth at 20 ppm [1] | pest or weed control at 200 ppm [2] | pest or weed control at 200 ppm [3]

CC(C)(C)ON=CCNC(=O)c1ccc(-c2noc(C(F)(F)F)n2)cc1 [Compound 1.89, N-(2-tert-butoxyiminoethyl)-4-[5-(trifluoromethyl)-1,2,4-oxadiazol-3-yl]benzamide]
≥ 80%: pest or weed control at 200 ppm (Phakopsora pachyrhizi) | inhibition of growth at 20 ppm [1] | pest or weed control at 200 ppm [2] | pest or weed control at 200 ppm [3]

C[C@@H](ON=CCNC(=O)c1ccc(-c2noc(C(F)(F)F)n2)cc1)C(=O)O [Compound 1.74, (2R)-2-[2-[[4-[5-(trifluoromethyl)-1,2,4-oxadiazol-3-yl]benzoyl]amino]ethylideneamino] oxypropanoic acid]
≥ 80%: pest or weed control at 200 ppm (Phakopsora pachyrhizi) | inhibition of growth at 20 ppm [1] | pest or weed control at 200 ppm [2] | pest or weed control at 200 ppm [3]

CC(CNC(=O)c1ccc(-c2noc(C(F)(F)F)n2)cc1)=NOC1COC1 [Compound 1.146, N-[2-(oxetan-3-yloxyimino)propyl]-4-[5-(trifluoromethyl)-1,2,4-oxadiazol-3-yl]benzamide]
≥ 80%: pest or weed control at 200 ppm (Phakopsora pachyrhizi) | inhibition of growth at 20 ppm [1] | pest or weed control at 200 ppm [2] | pest or weed control at 200 ppm [3]

C=CCON=CCNC(=O)c1ccc(-c2noc(C(F)(F)F)n2)cc1 [Compound 1.91, N-(2-allyloxyiminoethyl)-4-[5-(trifluoromethyl)-1,2,4-oxadiazol-3-yl]benzamide]
≥ 80%: pest or weed control at 200 ppm (Phakopsora pachyrhizi) | inhibition of growth at 20 ppm [1] | pest or weed control at 200 ppm [2] | pest or weed control at 200 ppm [3]

C=CCON=CC(C)NC(=O)c1ccc(-c2noc(C(F)(F)F)n2)cc1 (stereo not shown) [Compound 1.46, N-(2-allyloxyimino-1-methyl-ethyl)-4-[5-(trifluoromethyl)-1,2,4-oxadiazol-3-yl]benzamide]
≥ 80%: pest or weed control at 200 ppm (Phakopsora pachyrhizi) | inhibition of growth at 20 ppm [1] | pest or weed control at 200 ppm [2] | pest or weed control at 200 ppm [3]

CO/N=C\NC(=O)c1ccc(-c2noc(C(F)(F)F)n2)cc1 [Compound 1.5, N-[(Z)-methoxyiminomethyl]-4-[5-(trifluoromethyl)-1,2,4-oxadiazol-3-yl]benzamide]
≥ 80%: pest or weed control at 200 ppm (Phakopsora pachyrhizi) | inhibition of growth at 20 ppm [1] | pest or weed control at 200 ppm [2] | pest or weed control at 200 ppm [3]

CC(CNC(=O)c1ccc(-c2noc(C(F)(F)F)n2)cc1)=NOCCO [Compound 1.104]
≥ 80%: pest or weed control at 200 ppm (Phakopsora pachyrhizi) | inhibition of growth at 20 ppm [1] | pest or weed control at 200 ppm [2] | pest or weed control at 200 ppm [3]

O=C(NCC=NOC1CCCCO1)c1ccc(-c2noc(C(F)(F)F)n2)cc1 (stereo not shown) [Compound 1.70, N-(2-tetrahydropyran-2-yloxyiminoethyl)-4-[5-(trifluoromethyl)-1,2,4-oxadiazol-3-yl]benzamide]
≥ 80%: pest or weed control at 200 ppm (Phakopsora pachyrhizi) | inhibition of growth at 20 ppm [1] | pest or weed control at 200 ppm [2] | pest or weed control at 200 ppm [3]

CC(C=NOC/C=C\Cl)NC(=O)c1ccc(-c2noc(C(F)(F)F)n2)cc1 (stereo not shown) [Compound 1.36, N-[2-[(Z)-3-chloroallyloxy]imino-1-methyl-ethyl]-4-[5-(trifluoromethyl)-1,2,4-oxadiazol-3-yl]benzamide]
≥ 80%: pest or weed control at 200 ppm (Phakopsora pachyrhizi) | inhibition of growth at 20 ppm [1] | pest or weed control at 200 ppm [2] | pest or weed control at 200 ppm [3]

CCCON=CCNC(=O)c1ccc(-c2noc(C(F)(F)F)n2)cc1 [Compound 1.72, N-(2-propoxyiminoethyl)-4-[5-(trifluoromethyl)-1,2,4-oxadiazol-3-yl]benzamide]
≥ 80%: pest or weed control at 200 ppm (Phakopsora pachyrhizi) | inhibition of growth at 20 ppm [1] | pest or weed control at 200 ppm [2] | pest or weed control at 200 ppm [3]

CCCON=C(C)CNC(=O)c1ccc(-c2noc(C(F)(F)F)n2)cc1 [Compound 1.116, N-(2-propoxyimino-propyl)-4-[5-(trifluoromethyl)-1,2,4-oxadiazol-3-yl]benzamide]
≥ 80%: pest or weed control at 200 ppm (Phakopsora pachyrhizi) | inhibition of growth at 20 ppm [1] | pest or weed control at 200 ppm [2] | pest or weed control at 200 ppm [3]

O=C(NCC=NOCC=CCl)c1ccc(-c2noc(C(F)(F)F)n2)cc1 [Compound 1.78, N-[2-(3-chloroallyloxyimino)ethyl]-4-[5-(trifluoromethyl)-1,2,4-oxadiazol-3-yl]benzamide]
≥ 80%: pest or weed control at 200 ppm (Phakopsora pachyrhizi) | inhibition of growth at 20 ppm [1] | pest or weed control at 200 ppm [2] | pest or weed control at 200 ppm [3]
